This is an account of results in article PMC6051542 (MedChemComm, 2017).

In brackets after ≈: the same amount, converted by molar mass. Read-outs that look alike come from different tables or passages of the source.

The target in assay [1] is DNA gyrase ATPase activity (Escherichia coli, UniProt P0AES4+P0AES6). The assay can be described thus: ATPase activity of DNA gyrase. The class given is biochemical, E. coli. The conditions noted are these: up to a concentration of 100 μM.
Assay [2] concerns E. coli cells, overexpression (gyrA/gyrB) (+/+). The assay can be described thus: microbe, parasite or virus in culture. The conditions noted are these: Escherichia coli, induction + (IPTG). The format is cell-based.
The subject of assay [3] is gyrR strains derived from E. coli JW5503. Briefly: MIC against the five gyrR strains derived from E. coli JW5503. Conditions: Escherichia coli, read-out: MIC against gyrR strains. The format is cell-based.
The next assay concerns E. coli cells. Conditions: cited from earlier work.
Assay [4] relates to E. coli JW5503 harboring pCA24N-gyrB. The class given is cell-based.
The test system of assay [5] is E. coli, Edwardsiella tarda, S. enterica enterica Typhimurium, and S. flexneri. Briefly: MIC against susceptible gram-negative strains. The conditions noted are these: read-out: MICs against susceptible gram-negative strains. The format is cell-based.
In another assay the test system is gram-positive strains. The assay can be described thus: MIC against all 9 gram-positive strains tested. The class given is cell-based. The conditions noted are these: read-out: MIC values against all 9 gram-positive strains tested.
Another assay relates to E. coli BW25113. The conditions noted are these: wild-type E. coli BW25113; cited from earlier work.
For another assay, the system named is E. coli JW5503. The conditions noted are these: cited from earlier work.

Sequence of DNA gyrase ATPase activity (P0AES4 whole entry, one chain of several): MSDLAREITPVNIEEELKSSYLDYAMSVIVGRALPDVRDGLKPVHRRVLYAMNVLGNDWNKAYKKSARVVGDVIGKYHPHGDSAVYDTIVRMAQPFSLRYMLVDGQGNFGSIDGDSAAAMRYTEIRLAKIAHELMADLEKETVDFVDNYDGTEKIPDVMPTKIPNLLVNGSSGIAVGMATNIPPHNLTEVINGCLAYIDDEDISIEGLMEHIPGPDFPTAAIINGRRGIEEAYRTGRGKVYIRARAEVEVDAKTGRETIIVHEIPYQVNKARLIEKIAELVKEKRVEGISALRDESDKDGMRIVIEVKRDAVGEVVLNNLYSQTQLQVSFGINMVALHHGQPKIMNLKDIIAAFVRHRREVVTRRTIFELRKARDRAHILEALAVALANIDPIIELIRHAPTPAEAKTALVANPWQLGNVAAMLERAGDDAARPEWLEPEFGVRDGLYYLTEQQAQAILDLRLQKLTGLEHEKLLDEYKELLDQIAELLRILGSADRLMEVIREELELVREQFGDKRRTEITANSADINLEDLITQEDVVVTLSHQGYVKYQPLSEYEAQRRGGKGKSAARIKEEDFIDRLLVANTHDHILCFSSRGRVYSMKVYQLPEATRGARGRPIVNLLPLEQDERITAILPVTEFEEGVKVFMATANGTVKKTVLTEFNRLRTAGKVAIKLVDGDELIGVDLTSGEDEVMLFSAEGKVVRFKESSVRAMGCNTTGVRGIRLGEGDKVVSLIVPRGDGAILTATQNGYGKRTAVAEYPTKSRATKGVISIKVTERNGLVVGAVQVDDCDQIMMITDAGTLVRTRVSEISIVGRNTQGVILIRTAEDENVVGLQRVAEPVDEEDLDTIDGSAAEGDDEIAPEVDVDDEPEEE

For `O=C(O)c1cn(C2CC2)c2cc(N3CCNCC3)c(F)cc2c1=O` [Compound 1, Ciprofloxacin], in [1], the “inhibition of ATPase activity” value is recorded as “did not observe a decrease in ATPase activity”. The MIC in assay [2] was 0.002 µg/mL; in assay [3], 1.6 to 3.2 µg/mL (≈ 4.83 to 9.66 µM); in the assay with E. coli cells (E. coli cells before overexpression of DNA gyrase), 0.009 µg/mL (≈ 0.0272 µM); in the assay with E. coli cells (E. coli cells with overexpression of DNA gyrase), 0.002 µg/mL (≈ 0.00604 µM).
In the case of `CO[C@@H]1[C@@H](OC(N)=O)[C@@H](O)[C@H](Oc2ccc3c(O)c(NC(=O)c4ccc(O)c(CC=C(C)C)c4)c(=O)oc3c2C)OC1(C)C` [Compound 2, Novobiocin], the “highest concentration at which cultures grew” value in assay [4] worked out at 51 µg/mL.
As to `N#Cc1cccc(S(=O)(=O)N[C@@H]2CCN(Cc3ccc(-c4ccccc4)cc3)C2)c1` [Compound 3, (R)-N-(1-([1,1′-biphenyl]-4-ylmethyl)pyrrolidin-3-yl)-3-cyanobenzenesulfonamide], the “inhibition of ATPase activity” value in [1] is “did not inhibit the ATPase activity”. In assay [5], the MIC was 2 to 16 µg/mL (≈ 4.79 to 38.3 µM).
Regarding `Cc1ccc(C(F)(F)F)cc1S(=O)(=O)N[C@@H]1CCN(Cc2ccc(OC3CC3)cc2)C1` [Compound 4, (R)-N-(1-(4-cyclopropoxybenzyl)pyrrolidin-3-yl)-2-methyl-5-(trifluoromethyl)benzenesulfonamide], the figures for the MIC (in the assay on gram-positive strains; in assay [5]) were 4 to 16 µg/mL (≈ 8.8 to 35.2 µM) and 2 to 16 µg/mL (≈ 4.4 to 35.2 µM), respectively.
For `Cc1ccc(C#N)cc1S(=O)(=O)N[C@@H]1CCN(Cc2ccc(-c3ccccc3)cc2)C1` [Compound 5, (R)-N-(1-([1,1′-biphenyl]-4-ylmethyl)pyrrolidin-3-yl)-5-cyano-2-methylbenzenesulfonamide], the MIC in assay [5] fell in the range of 2 to 16 µg/mL (≈ 4.63 to 37.1 µM).
In the case of `Cc1ccc(F)cc1S(=O)(=O)N[C@@H]1CCN(Cc2ccc(-c3ccccc3)cc2)C1` [Compound 8, gyramide C], the MIC in the assay on E. coli BW25113 is more than 160 µg/mL; in the assay on E. coli JW5503, 0.1 µg/mL (≈ 0.236 µM).
